Source: publication PMC9693223 (Molecules, 2022)
Where two headings read alike, the source gives them in different places.

Experiments:
[1] = test system: L. mexicana Cas9^ΔNT1 promastigotes; parameters: method as in de Almeida Fiuza et al. [41]; settings: starred values, ref de Almeida Fiuza et al. [41], cited from earlier work; for EC50: L. mexicana Cas9^ΔNT1 promastigotes, read-out: EC50 (µM) AVG ± SEM, L. mexicana Cas9^ΔNT1; for RF vs. Cas9 (resistance factor): EC50 Cas9^ΔNT1 relative to Cas9
[2] = test system: L. mexicana Cas9 promastigotes; parameters: method as in de Almeida Fiuza et al. [41]; settings: starred values, ref de Almeida Fiuza et al. [41], read-out: EC50 (µM) AVG ± SEM, Cas9; cited from earlier work
[3] = test system: L. mexicana Cas9^ΔNT1+TcrNT2 promastigotes; parameters: method as in de Almeida Fiuza et al. [41]; settings: starred values, ref de Almeida Fiuza et al. [41], cited from earlier work; for EC50: L. mexicana Cas9^ΔNT1+TcrNT2 promastigotes, read-out: EC50 (µM) AVG ± SEM, L. mexicana Cas9^ΔNT1+TcrNT2; for RF vs. ΔNT1 (resistance factor): Cas9^ΔNT1+TcrNT2 in comparison to Cas9^ΔNT1
[4] = test system: intracellular T. cruzi amastigotes; settings: intracellular amastigotes; ref [16]; read-out: EC50 against intracellular T. cruzi amastigotes; cited from earlier work
[5] = test system: NT1 transport activity; parameters: method as in PMID 28453984; settings: NT1 transport activity in L. mexicana; ref [36]; cited from earlier work
[6] = biological target: TcrNT2 (Trypanosoma cruzi, UniProt Q4DHG0); settings: ref Campagnaro et al. [30], cited from earlier work
[7] = test system: T. cruzi epimastigotes (CL Brener strain); assay: In vitro inhibition of proliferation of T. cruzi epimastigotes; assay type: cell-based, Trypanosoma cruzi; settings: cell densities at the 5th day of proliferation, four independent experiments
Description: Trypomastigotes were obtained by infecting CHO-K1 cells. CHO-K1 cells were cultivated in RPMI-1640 medium supplemented with 10% heat-inactivated fetal calf serum (FCS), 0.15% (w/v) […], 100 µg mL^−1 penicillin and 130 µg mL^−1 streptomycin and incubated at 37 °C in a humidified atmosphere containing 5% CO2. CHO-K1 cells were initially incubated with metacyclic trypomastigotes obtained by in vitro differentiation of epimastigotes as previously described (multiplicity of infection: 50 parasites per cell) for 4 h. After washing out the non-internalized parasites, the cells were incubated overnight in RPMI medium supplemented with 10% FCS at 37 °C and then maintained at 33 °C in a humidified atmosphere containing 5% CO2 as previously reported. Infected cells were maintained at 33 °C in the presence of 10% FCS. Infected cell-derived trypomastigotes started to burst into the culture medium at the 5th day post-infection. Trypomastigotes collected at day 5 or 6 post infection were used for the viability assays.
The density of exponentially proliferating epimastigotes for each assay was adjusted to 2.0 × 10^6 parasites mL^−1, transferred into 96-well plates (200 μL/well) and incubated with different concentrations of the compounds 5-F-2′-deoxyuridine, 5-F-uracil, 5-F-uridine or benznidazole. A combination of 60 μM rotenone and 0.5 μM antimycin (RA) was used as a positive control for proliferation inhibition (positive control), as previously described. […] The epimastigote proliferation was measured as previously reported, by reading the optical density (OD) at 620 nm every 24 h for 9 days (which collects readings through the exponential and stationary phases). […] The half-maximal inhibitory concentrations (IC50) were determined during the exponential growth phase (fifth day) by adjusting a sigmoidal dose-response function to experimentally obtained data using GraphPad Prism 8. The compounds were assessed in quadruplicate in each experiment, and the results correspond to four independent experiments.

[8] = test system: L. mexicana Cas9^ΔNT1 promastigotes; assay: Alamar blue drug sensitivity assay, L. mexicana Cas9^ΔNT1 promastigotes; assay type: cell-based, Leishmania mexicana; settings: L. mexicana Cas9^ΔNT1 promastigotes, 72 h + 48 h resazurin
Description: (§1) We used L. mexicana promastigotes of the Cas9 strain developed by Beneke at al. to generate the ΔNT1 strain, and from there the Cas9^ΔNT1+TcrNT2 (see below); The original Cas9 strain was generously donated by Prof. Eva Gluenz (University of Bern, Switzerland). All strains in standard HOMEM (GIBCO, Life Technologies, Paisley, UK) supplemented with 10% heat-inactivated fetal bovine serum (FBS; PAA Laboratories, Linz, Austria) and 1% of a penicillin–streptomycin solution (10,000 U mL^−1 each; Life Technologies) at 25 °C, as described.
(§2) The Alamar blue assay (resazurin sodium salt) was used to determine the drug sensitivity of the L. mexicana promastigotes in vitro. The assay is based on the reduction of resazurin sodium salt (blue and non-fluorescent) to resorufin (pink color and fluorescent) by live cells. HOMEM medium with 10% FBS (100 μL) was added to all wells of a white 96-well plate apart from the first well. 200 μL of a known concentration of test compounds was diluted in HOMEM medium and placed in the first well. Compounds were tested in one plate and every compound was diluted over two rows (23 concentrations), leaving the last well of every dilution as a negative control having 100 μL HOMEM medium. Next, 100 μL of L. mexicana culture at a density of 2 × 10^6 cells mL^−1 was added into every well in the plate and incubated for 72 h at a temperature of 25 °C after which resazurin sodium salt (Sigma) (20 μL of a solution of 12.5 mg in 100 mL PBS) was added and the plate was incubated under the same conditions for a further 48 h. Fluorescence was measured in a FLUOstar OPTIMA plate reader (BMG Labtech, Germany), at a wavelength of 544 nm for excitation and 620 nm for emission. The EC50 values and fluorescence data were determined and plotted by the GraphPad Prism 8 Software using an equation for a sigmoid curve with variable slope. Pentamidine was used as positive control and every experiment was performed 3–4 times independently.

[9] = test system: L. mexicana Cas9^ΔNT1+TcrNT2 promastigotes; assay: Alamar blue drug sensitivity assay, L. mexicana Cas9^ΔNT1+TcrNT2 promastigotes; assay type: cell-based, Leishmania mexicana; settings: L. mexicana Cas9^ΔNT1+TcrNT2 promastigotes, 72 h + 48 h resazurin
Description: as §1, §2

[10] = test system: L. mexicana Cas9 promastigotes; assay: Alamar blue drug sensitivity assay, L. mexicana Cas9 promastigotes; assay type: cell-based, Leishmania mexicana; settings: 72 h + 48 h resazurin, at least 3 independent determinations
Description: as §1, §2

[11] = substrate: Cc1cn([C@H]2C[C@H](O)[C@@H](CO)O2)c(=O)[nH]c1=O; assay: Transport of [^3H]-thymidine by TcrNT2 expressed in L. mexicana Cas9^ΔNT1 (Km, inhibition); assay type: cell-based, Trypanosoma cruzi; settings: other: TcrNT2 in L. mexicana Cas9^ΔNT1, […] [^3H]-thymidine, 5 min, n = 3
Description: These values can be used to calculate the Gibbs free energy of interaction ΔG°, but these experiments cannot distinguish between the test compound being transported or merely binding to the transporter and inhibiting the transit of the [^3H]-thymidine.
Transport assays were conducted with radiolabeled nucleosides [methyl-^3H]-thymidine (20 Ci/mmol; PerkinElmer (Waltham, MA, USA)) and [2,8-^3H]-adenosine (40 Ci/mmol; American Radiolabeled Chemicals (ARC, St-Louis, MO, USA)). Cells were harvested from mid-log phase cultures by centrifugation and washed into an assay buffer (AB) as described, at a density of 1 × 10^8 cells mL^−1. Transport assays were then performed exactly as described previously, using an oil-stop protocol. […]
Michaelis-Menten constants (Km) were calculated by plotting transport rates of [^3H]-substrate against the concentration, using the Michaelis-Menten equation V0 = Vmax([substrate]/([substrate] + Km)) and non-linear regression in GraphPad Prism 8. Inhibition constants (Ki) were calculated using the Cheng-Prusoff equation: Ki = IC50/(1 + (L/Km)), where L represents the radiolabel concentration. […]

| Molecule | EC50 [1] [µM] | EC50 [2] [µM] | EC50 [3] [µM] | RF vs. Cas9 (resistance factor) [1] | RF vs. ΔNT1 (resistance factor) [3] | further results |
| --- | --- | --- | --- | --- | --- | --- |
| Nc1ncnc2c1c(-c1ccc(Cl)c(F)c1)cn2[C@@H]1O[C@H](CO)[C@@H](O)[C@H]1O [FH10714] | > 500 | > 500 | > 500 | – | – | – |
| Nc1ncnc2c1c(-c1ccc(Cl)c(Cl)c1)cn2[C@@H]1O[C@H](CO)[C@@H](O)[C@H]1O [FH3147, 7-(3,4-dichlorophenyl)-tubercidin] | > 100 | 8.41 ± 1.61 | 13.7 ± 1.25 | >11.8 | – | EC50 [4]: 0.19 µM |
| Nc1ncnc2c1c(-c1ccc(Cl)cc1)cn2[C@@H]1O[C@H](CO)[C@@H](O)[C@H]1O [TH1012] | 280 ± 18 | 52.5 ± 0.3 | 96.6 ± 0.3 | 5.3 | 2.90 | – |
| Nc1ncnc2c1ncn2[C@@H]1O[C@H](CO)[C@@H](O)[C@H]1O [Adenosine] | – | – | – | – | – | Km [5]: 0.81 ± 0.16 µM; Ki ([6]; earlier characterization, TcrNT2 expressed in T. brucei, read-out: Ki on thymidine transport by TcrNT2): 1560 ± 60 µM; ΔG° (Gibbs free energy of interaction) ([6]; from cited Ki): -3.78 kcal/mol |
| O=c1[nH]c(=O)n([C@@H]2O[C@H](CO)[C@@H](O)[C@H]2O)cc1F [5-F-uridine] | – | – | – | – | – | IC50 [7]: > 500 µM; EC50 ([8]; read-out: EC50 (µM) AVG ± SEM, L. mexicana Cas9^ΔNT1): > 500 µM; EC50 ([9]; read-out: EC50 (µM) AVG ± SEM, L. mexicana Cas9^ΔNT1+TcrNT2): > 500 µM; EC50 ([10]; read-out: EC50 (µM) AVG ± SEM, Cas9): > 500 µM |
| Nc1ncnc2c1c(-c1ccccc1)cn2[C@@H]1O[C@H](CO)[C@@H](O)[C@H]1O [TH1004] | 138 ± 10 | 37 ± 0.23 | 101 ± 0.5 | 3.7 | 1.37 | – |
| O=c1[nH]cc(F)c(=O)[nH]1 [5-F-uracil] | – | – | – | – | – | IC50 [7]: 25.9 ± 0.01 µM; EC50 (µM) AVG ± SEM, L. mexicana Cas9^ΔNT1 [8]: poorly active; EC50 (µM) AVG ± SEM, L. mexicana Cas9^ΔNT1+TcrNT2 [9]: poorly active; EC50 (µM) AVG ± SEM, Cas9 [10]: poorly active |
| Nc1ncnc2c1c(Cl)cn2[C@@H]1O[C@H](CO)[C@@H](O)[C@H]1O [FH3169] | 2 ± 0.19 | 0.24 ± 0.055 | 0.32 ± 0.05 | 8.43 | 6.26 | – |
| TcrNT2 (Trypanosoma cruzi strain CL Brener) (protein) MGLGFEFWGEAYSYAAAIMCGLSMLLPINAIFSAPLYIMNYYQYVMHDPNAVAKHKNFWDNALTYYSMLIMLVALIVEPLTLSEAFRRIPIRLRMLSALSMFWLEIIILMSVPAAGSTEAGAISAIVCASFSSALGKSVFESTAYGLFGVFPSRFNTALMGGVGVAGALASILQLIVKASLPQDYSGIRTQSKIYYGLMAGIHGITFIMVVGLHWVPFAQRYINALSGGTSSPASNNPDQAAESETEAASKANEKSAPKATNGGDDNADSGRLVNTNVIFVLKCVYPMLSACGFNFFITLFLFPTIVVSVDPDDYWYGTVAVCIFNVCDVCGRFSPSLKCLWPPRWVVLVGSFSRVVFVPLLILASYHYIPSHAYNYVMMVIFGLSNGYIGALAITLGPLTRNLETSGQRFVAGTMFGISILIGGTIGSALSILVQTLRG | – | – | – | – | – | Km [11]: 0.263 µM; Km ([11]; […]): 0.26 ± 0.05 µM |
